From publication PMC2758489 (Journal of neurochemistry, 2009)

Biological target: tau (Homo sapiens, UniProt P10636, P618L)
Assay: heparin-induced fibrillization, ThT fluorescence
Type: biochemical

Chain of tau (P10636 561-689 P618L): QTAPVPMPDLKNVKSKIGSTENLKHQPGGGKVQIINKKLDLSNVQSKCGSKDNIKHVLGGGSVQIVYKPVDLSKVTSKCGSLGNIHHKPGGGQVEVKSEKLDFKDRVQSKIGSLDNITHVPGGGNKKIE

| SMILES | IC50 |
| --- | --- |
| C/C=C(/C=O)[C@H](CC=O)CC(=O)OCCc1ccc(O)cc1 [(+)-oleocanthal] | ~3.5 µM |
| C/C=C(/C=O)[C@@H](CC=O)CC(=O)OCCc1ccc(O)cc1 [compound 1, (-)-oleocanthal] | ~2.9 µM |
